Laboratory results taken from patent US11903386B2, “Strigolactone analogs and their usage in plant control” (King Abdullah University of Science and Technology, priority 2016, dated 2024).
“Also recorded” adds a separate entry of the source.

How the values were obtained:
S. hermonthica seeds = experiment: Striga hermonthica seed germination bioassay; format: in vivo; conditions: for Relative activity in inducing S. hermonthica seed germination: comparison between compounds
Description: Parasitic weed seeds (S. hermonthica and P. ramosa) germination activity was recorded as described previously (Jamil et al., 2012). Six pre-conditioned seed discs were placed in a 90 mm petri-dish containing a filter paper ring wetted with 0.9 ml sterile MilliQ water. […] GR24 solutions with equal concentrations and sterile MilliQ water were included as a positive and negative control, respectively. After application, seeds were incubated at 30° C./25° C. in the dark for two days. Germination (seeds with radical emerging through seed coat) was scored under a binocular microscope, and germination rate (%) was calculated. Statistical analyses were carried out using statistical software package R (version 3.2.2). Dose-response curves and Half Maximum Effective Concentrations (EC50) were calculated to determine optimum amount of MPs. Synthetic strigolactone analog GR24 was used as reference to estimate efficacy of selected compounds. EC50 and estimated response were calculated using drc package (https://cran.r390 project.org/web/packages/drc/) with a Four Parameter Logistic Curve (Dose Response Curve) (Ritz and Streibig, 2005).

rice d10 mutant = experiment: Rice micro tillering bioassay, d10 mutant; format: in vivo; conditions: comparison between compounds
Description: Rice seeds (WT, d3, d10) were surface-sterilized by washing with 70% ethanol for 1 min and then with 2.5% sodium hypochlorite for 15 min. Seeds were then rinsed thoroughly with sterile MilliQ water and incubated in water for 2 days at 30° C. in the dark. Pre-germinated seeds were transferred to filter papers containing ½ strength MS medium in 90 mm petri dishes and incubated at 30° C. under fluorescent white light (130-180 μM m^−2 s^−1) for one week. Seven day-old seedlings were transferred to 50 ml falcon tubes (one seedling per tube) containing modified half-strength Hoagland nutrient solution and grown in greenhouse. Plants were treated with MPs at 2.5 μM-2.5×10-7 μM, using GR24 as positive control. The compounds were applied six times, twice a week. Number of tillers per plant, plant height and fresh biomass were measured at final harvest.
Statistical analyses were carried out using statistical software package R (version 3.2.2). Dose-response curves and Half Maximum Effective Concentrations (EC50) were calculated to determine optimum amount of MPs. Synthetic strigolactone analog GR24 was used as reference to estimate efficacy of selected compounds. EC50 and estimated response were calculated using drc package (https://cran.r390 project.org/web/packages/drc/) with a Four Parameter Logistic Curve (Dose Response Curve) (Ritz and Streibig, 2005).

ShHTL7 [1] = molecular target: T1, ShHTL7 (Striga hermonthica, UniProt A0A0M3PNA2); experiment: In vitro hydrolysis assay with ShHTL7 (HPLC); format: biochemical; conditions: 10 μM substrate, 37° C.
T1 sequence (A0A0M3PNA2 1-271): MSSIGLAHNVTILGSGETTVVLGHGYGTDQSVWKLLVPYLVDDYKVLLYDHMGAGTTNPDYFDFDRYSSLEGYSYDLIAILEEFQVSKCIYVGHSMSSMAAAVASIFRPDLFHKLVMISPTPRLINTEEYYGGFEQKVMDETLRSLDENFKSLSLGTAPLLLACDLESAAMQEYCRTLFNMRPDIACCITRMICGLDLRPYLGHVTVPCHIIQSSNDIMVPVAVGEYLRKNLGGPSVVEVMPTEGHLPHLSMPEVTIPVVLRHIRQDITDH

ShHTL7 [2] = molecular target: T1, ShHTL7; experiment: Intrinsic tryptophan fluorescence assay; format: binding; conditions: ShHTL7 10 μM, mean±SE (n=3); read-out: Kd, affinity of ShHTL7
Excerpt: Striga hermonthica ShHTL7 cDNA, GenBank accession KR013127 was kindly provided by Prof. Tadao Asami (The University of Tokyo, Japan). Arabidopsis thaliana D14 (AtD14) cDNA, GenBank accession AY097402 was synthesized and cloned into pUC57 (GenScript). ShHTL7 and OsD14 cDNAs were amplified by RT-PCR using the primers shown in Table 2, digested with BamHI and XhoI, and ligated into BamHI/XhoI digested pGEX-6P-1 expression vector (GE Healthcare). Integrity of plasmids was confirmed by sequencing (KAUST Bioscience Core Lab). The plasmids were then transformed into E. coli BL21 (DE3) cells. The cells were grown in LB broth containing ampicillin ([…]), incubated at 37° C. until OD600 of 0.6 and induced with 0.1 mM isopropyl-β-D-thiogalactopyranoside (IPTG) at 16° C. for 16 h. Harvested cells were re-suspended in lysis buffer: 50 mM Tris-HCl (pH 8.0), 200 mM NaCl, 0.5% Tween-20 and 2 mM dithiothreitol (DTT). After sonication on ice for 10 mins, the lysate was centrifuged at 25,000 rpm for 30 min at 4° C. Supernatant was allowed to bind to glutathione-sepharose beads (GE Healthcare) for 2 h at 4° C., washed 3 times with buffer (50 mM Tris-HCl (pH 8.0), 200 mM NaCl, 2 mM DTT), and eluted by cleaving GST moiety with PreScission™ Protease (GE Healthcare) at 4° C. overnight. Eluted protein was further purified by gel filtration using HiLoad 16/60 Superdex200 prep grade column (GE Healthcare) on an AKTA prime system (GE Healthcare) in gel filtration buffer (10 mM HEPES pH 7.5, 50 mM KCl and 2 mM DTT). Protein eluted as a sharp single peak and purity was judged by 4-15% SDS-PAGE (Bio-Rad). Purified protein was concentrated using an Amicon 10K filter unit (Merck Millipore) and stored at −80° C. until use. Similar expression and purification protocol was followed for OsD14 protein, except that OsD14 was eluted from Glutathione resins using 0.2 mM reduced Glutathione (Sigma) without cutting GST tag.
ShHTL7 tryptophans were excited at 280 nm and […] emission intensity was measured at 333 nm. ShHTL7 (10 μM) was incubated at various dilutions (0.2, 0.4, 0.8, 1.6, 3.12, 6.25, 12.5, 25 and 50 μM) of GR24 and MPs for 30 minutes at room temperature before measurement. Each concentration point was measured in triplicates. Emitted fluorescence was monitored using spectraMaxi3 (Molecular Devices) plate reader in 96-wells black plates. Changes in tryptophan fluorescence intensity occur due to conformational changes in protein when it is bound to ligand; differences in fluorescence intensity were recorded and analyzed. Data were normalized and dissociation coefficient (Kd) values were calculated by fitting to a binding saturation single-site model with GraphPad (PRISM 6).

[3] = Chemical stability of MPs in aqueous solution, monitored by HPLC; format: physicochemical; conditions: aqueous solution pH 6.8, 21° C., monitored at 24 h intervals up to 3 weeks
Description: Aqueous solutions of MPs (50 μg ml-1; pH 6.8) were incubated at 21° C. in amber HPLC vials. For sample preparation, 50 μl of an acetone solution (1 mg ml-1) was diluted to the final concentration with methanol (425 μl), water (500 μl) and 25 μl of 1-Indanol (1.0 mg ml-1 solution in acetone) as internal standard. […] The column was operated at 35° C. with a flow rate of 0.25 ml per min. Compounds eluted from the column were detected with a Diode array detector. Relative quantity of remaining (non-degraded) product was determined by comparison to the internal standard.

Row | Compound | Relative activity in inducing S. hermonthica seed germination (S. hermonthica seeds) | Striga germination activity (EC50) relative to GR24, times weaker (S. hermonthica seeds; in vivo) | Relative activity in inhibiting rice tillering (d10) (rice d10 mutant) | Hydrolysis rate by ShHTL7 (ShHTL7 [1]) | Kd (ShHTL7 [2]) | Stability in comparison to GR24 [3]
1 | COC(=O)/C(=C/OC1C=C(C)C(=O)O1)c1ccc([N+](=O)[O-])cc1 (racemic) [MP1, (E)-methyl 3-(4-methyl-5-oxo-2,5-dihydrofuran-2-yloxy)-2-(4-nitrophenyl)acrylate] | the most potent compound | around 17 times | weaker than GR24 | highest hydrolysis rates | 0.72 ± 0.55 µM | slightly less stable than GR24
2 | COC(=O)/C(=C/OC1C=C(C)C(=O)O1)c1ccccc1 (racemic) [MP3, (E)-methyl 3-(4-methyl-5-oxo-2,5-dihydrofuran-2-yloxy)-2-phenylacrylate] | less active than MP1 | – | the most active compound; also recorded: most pronounced inhibitory effect on tillering | finally MP3; also recorded: higher hydrolysis activities with MP3 and MP7 than with GR24 | 10.1 ± 5.1 µM | more stable than GR24
3 | COC(=O)/C(=C/OC1C=C(C)C(=O)O1)c1ccc(Cl)cc1 (stereo not shown) [MP7] | highest germination activity | – | more active than GR24 | higher hydrolysis activities with MP3 and MP7 than with GR24 | 1.15 ± 0.31 µM | more stable than GR24
